In brackets after ≈: the same amount, converted by molar mass. Where two headings read alike, the source gives them in different places.
How the values were obtained:
Experiment in all cases: Antibacterial activity (MIC), agar dilution
Type in all cases: cell-based
[1] = system: Aci. antitratus A-6; settings: 20 h, Aci. antitratus A-6; 10^6 cells per ml; 37° C., 20 hours; read-out: MIC
Source text: (§1) The amount of bacteria inoculated was 10^4 cells per plate (10^6 cells per ml).

[2] = system: E. coli NIHJ JC-2; settings: Escherichia coli, NIHJJC2, 20 h
Source text: as §1

[3] = system: E. coli TK-111; settings: Escherichia coli, TK111, 20 h
Source text: as §1

[4] = system: Ent. cloacae IID977; settings: Enterobacter cloacae, IID977, 20 h
Source text: as §1

[5] = system: Kl. pneumoniae Y-41; settings: Klebsiella pneumoniae, Y41, 10^6 cells per ml, 37° C., 20 hours, read-out: MIC
Source text: as §1

[6] = system: Kl. pneumoniae Y-50; settings: Klebsiella pneumoniae, Y50, 20 h, 10^6 cells per ml, 37° C., read-out: MIC
Source text: as §1

[7] = system: Pro. mirabilis T-111; settings: Proteus mirabilis, 37° C.
Source text: as §1

[8] = system: Pro. morganii T-216; settings: Morganella morganii, 37° C.
Source text: as §1

[9] = system: Pro. vulgaris GN3027; settings: Proteus vulgaris, GN3027, 20 h, Pro. vulgaris GN3027; 10^6 cells per ml; 37° C., 20 hours; read-out: MIC
Source text: as §1

[10] = system: Ps. aeruginosa IFO3445; settings: Pseudomonas aeruginosa
Source text: as §1

[11] = system: Ps. aeruginosa S-68; settings: Pseudomonas aeruginosa
Source text: as §1

[12] = system: St. aureus FDA209P; settings: Staphylococcus aureus, FDA209P, 20 h, St. aureus FDA209P; 10^6 cells per ml; 37° C., 20 hours; read-out: MIC
Source text: as §1

[13] = system: E. coli TK-3*; settings: Escherichia coli, 20 h
Source text: as §1
(§2) * Penicillinase-producing bacteria

[14] = system: Kl. pneumoniae Y-4*; settings: Klebsiella pneumoniae, 20 h, Kl. pneumoniae Y-4, penicillinase-producing; 10^6 cells per ml; read-out: MIC
Source text: as §1, §2

[15] = system: Ps. aeruginosa GN3379*; settings: Pseudomonas aeruginosa, Ps. aeruginosa GN3379, penicillinase-producing, 10^6 cells per ml
Source text: as §1, §2

[16] = system: St. aureus F-137*; settings: Staphylococcus aureus, 20 h, St. aureus F-137, penicillinase-producing; 10^6 cells per ml; read-out: MIC
Source text: as §1, §2

[17] = system: E. coli GN5482**; settings: Escherichia coli, 20 h; E. coli GN5482, cephalospolinase-producing; 10^6 cells per ml; read-out: MIC
Source text: as §1
(§3) ** Cephalospolinase-producing bacteria

[18] = system: Pro. vulgaris GN76**; settings: Proteus vulgaris
Source text: as §1, §3

[19] = system: Ps. aeruginosa GN918**; settings: Pseudomonas aeruginosa, 20 h; Ps. aeruginosa GN918, cephalospolinase-producing; 10^6 cells per ml; read-out: MIC
Source text: as §1, §3

[20] = E. coli NIHJ JC-2, 10^6 cells per ml, 37° C., 20 hours, read-out: MIC
[21] = E. coli TK-111, 10^6 cells per ml, 37° C., 20 hours, read-out: MIC
[22] = Ent. cloacae IID977, 10^6 cells per ml, 37° C., 20 hours, read-out: MIC
[23] = T111, 10^6 cells per ml, 20 hours, read-out: MIC
[24] = T216, 10^6 cells per ml, 20 hours, read-out: MIC
[25] = E. coli TK-3, penicillinase-producing, 10^6 cells per ml, read-out: MIC
[26] = 20 h, Pro. vulgaris GN76, cephalospolinase-producing, 10^6 cells per ml, read-out: MIC
[27] = S68, Ps. aeruginosa S-68, 10^6 cells per ml, 37° C., 20 hours, read-out: MIC
[28] = Ps. aeruginosa IFO3445, 10^6 cells per ml, 37° C., 20 hours, read-out: MIC

O=C(O)c1cn(-c2ccc(O)cc2F)c(-c2cc3ccccc3s2)cc1=O
MIC [1]: 0.1 µg/mL (≈ 0.262 µM)
MIC [2, 20]: 0.2 µg/mL (≈ 0.524 µM)
MIC [3, 21]: ≤ 0.05 µg/mL
MIC [4, 22]: 0.39 µg/mL (≈ 1.02 µM)
MIC [5]: 1.56 µg/mL (≈ 4.09 µM)
MIC [6]: 0.2 µg/mL (≈ 0.524 µM)
MIC [7, 23]: 0.78 µg/mL (≈ 2.05 µM)
MIC [8, 24]: 0.78 µg/mL (≈ 2.05 µM)
MIC [9]: ≤ 0.05 µg/mL
MIC ([10]; IFO3445, 20 h): 1.56 µg/mL (≈ 4.09 µM)
MIC ([11]; S68, 20 h): 1.56 µg/mL (≈ 4.09 µM)
MIC [12]: ≤ 0.05 µg/mL
MIC [13, 25]: 0.39 µg/mL (≈ 1.02 µM)
MIC [14]: 1.56 µg/mL (≈ 4.09 µM)
MIC ([15]; GN3379, 20 h): 1.56 µg/mL (≈ 4.09 µM)
MIC [16]: ≤ 0.05 µg/mL
MIC [17]: ≤ 0.05 µg/mL
MIC [18, 26]: 0.2 µg/mL (≈ 0.524 µM)
MIC [19]: 3.13 µg/mL (≈ 8.21 µM)

CC(=O)Oc1ccc(-n2cc(C(=O)O)c(=O)cc2-c2cc3ccccc3s2)c(F)c1
MIC [1]: 0.2 µg/mL (≈ 0.472 µM)
MIC [2, 20]: 0.39 µg/mL (≈ 0.921 µM)
MIC [3, 21]: ≤ 0.05 µg/mL
MIC [4, 22]: 0.78 µg/mL (≈ 1.84 µM)
MIC [5]: 3.13 µg/mL (≈ 7.39 µM)
MIC [6]: 0.39 µg/mL (≈ 0.921 µM)
MIC [7, 23]: 1.56 µg/mL (≈ 3.68 µM)
MIC [8, 24]: 1.56 µg/mL (≈ 3.68 µM)
MIC [9]: 0.1 µg/mL (≈ 0.236 µM)
MIC ([10]; IFO3445, 20 h): 3.13 µg/mL (≈ 7.39 µM)
MIC [11, 27]: 1.56 µg/mL (≈ 3.68 µM)
MIC [12]: 0.1 µg/mL (≈ 0.236 µM)
MIC [13, 25]: 0.39 µg/mL (≈ 0.921 µM)
MIC [14]: 3.13 µg/mL (≈ 7.39 µM)
MIC ([15]; GN3379, 20 h): 3.13 µg/mL (≈ 7.39 µM)
MIC [16]: ≤ 0.05 µg/mL
MIC [17]: ≤ 0.05 µg/mL
MIC [18, 26]: 0.39 µg/mL (≈ 0.921 µM)
MIC [19]: 6.25 µg/mL (≈ 14.8 µM)

O=C(O)c1cn(-c2ccc(O)cc2)c(-c2ccc(-c3cccs3)cc2)cc1=O
MIC [1]: 0.1 µg/mL (≈ 0.257 µM)
MIC [2, 20]: 0.1 µg/mL (≈ 0.257 µM)
MIC [3, 21]: ≤ 0.05 µg/mL
MIC [4, 22]: 0.39 µg/mL (≈ 1 µM)
MIC [5]: 1.56 µg/mL (≈ 4.01 µM)
MIC [6]: 0.2 µg/mL (≈ 0.514 µM)
MIC [7, 23]: 0.39 µg/mL (≈ 1 µM)
MIC [8, 24]: 0.39 µg/mL (≈ 1 µM)
MIC [9]: ≤ 0.05 µg/mL
MIC ([10]; IFO3445, 20 h): 1.56 µg/mL (≈ 4.01 µM)
MIC [11, 27]: 3.13 µg/mL (≈ 8.04 µM)
MIC [12]: ≤ 0.05 µg/mL
MIC [13, 25]: 0.39 µg/mL (≈ 1 µM)
MIC [14]: 0.78 µg/mL (≈ 2 µM)
MIC ([15]; 20 h, read-out: MIC): 3.13 µg/mL (≈ 8.04 µM)
MIC [16]: ≤ 0.05 µg/mL
MIC [17]: ≤ 0.05 µg/mL
MIC [18, 26]: 0.2 µg/mL (≈ 0.514 µM)
MIC [19]: 6.25 µg/mL (≈ 16 µM)

O=C(O)c1cn(-c2ccc(O)cc2)c(-c2cc3ccccc3s2)cc1=O
MIC [1]: 0.2 µg/mL (≈ 0.55 µM)
MIC [2, 20]: 0.2 µg/mL (≈ 0.55 µM)
MIC [3, 21]: ≤ 0.05 µg/mL
MIC [4, 22]: 0.39 µg/mL (≈ 1.07 µM)
MIC [5]: 0.78 µg/mL (≈ 2.15 µM)
MIC [6]: 0.2 µg/mL (≈ 0.55 µM)
MIC [7, 23]: 0.78 µg/mL (≈ 2.15 µM)
MIC [8, 24]: 0.39 µg/mL (≈ 1.07 µM)
MIC [9]: ≤ 0.05 µg/mL
MIC [10, 28]: 3.13 µg/mL (≈ 8.61 µM)
MIC [11, 27]: 0.78 µg/mL (≈ 2.15 µM)
MIC [12]: ≤ 0.05 µg/mL
MIC [13, 25]: 0.39 µg/mL (≈ 1.07 µM)
MIC [14]: 0.78 µg/mL (≈ 2.15 µM)
MIC ([15]; 20 h, read-out: MIC): 3.13 µg/mL (≈ 8.61 µM)
MIC [16]: ≤ 0.05 µg/mL
MIC [17]: ≤ 0.05 µg/mL
MIC [18, 26]: 0.2 µg/mL (≈ 0.55 µM)
MIC [19]: 3.13 µg/mL (≈ 8.61 µM)

CN(C)c1ccc(-c2cc(=O)c(C(=O)O)cn2-c2ccc(F)cc2O)cc1
MIC [1]: 0.78 µg/mL (≈ 2.12 µM)
MIC [2, 20]: 0.78 µg/mL (≈ 2.12 µM)
MIC [3]: 1.56 µg/mL (≈ 4.23 µM)
MIC [4]: 1.56 µg/mL (≈ 4.23 µM)
MIC [5]: 6.25 µg/mL (≈ 17 µM)
MIC [6]: 1.56 µg/mL (≈ 4.23 µM)
MIC ([7]; T111, 20 h, 10^6 cells per ml): 6.25 µg/mL (≈ 17 µM)
MIC [8, 24]: 3.13 µg/mL (≈ 8.5 µM)
MIC [9]: 0.39 µg/mL (≈ 1.06 µM)
MIC [10, 28]: 12.5 µg/mL (≈ 33.9 µM)
MIC [11, 27]: 12.5 µg/mL (≈ 33.9 µM)
MIC [12]: 0.2 µg/mL (≈ 0.543 µM)
MIC [13]: 1.56 µg/mL (≈ 4.23 µM)
MIC [14]: 6.25 µg/mL (≈ 17 µM)
MIC ([15]; 20 h, read-out: MIC): 25 µg/mL (≈ 67.9 µM)
MIC [16]: 0.2 µg/mL (≈ 0.543 µM)
MIC [17]: ≤ 0.05 µg/mL
MIC ([18]; GN76, 20 h): 1.56 µg/mL (≈ 4.23 µM)
MIC [19]: 50 µg/mL (≈ 136 µM)

O=C(O)c1cn(-c2ccc(F)cc2)c(-c2sccc2-c2ccc([N+](=O)[O-])cc2)cc1=O
MIC [1]: 0.78 µg/mL (≈ 1.79 µM)
MIC [2]: 1.56 µg/mL (≈ 3.57 µM)
MIC [3, 21]: 0.2 µg/mL (≈ 0.458 µM)
MIC [4, 22]: 3.13 µg/mL (≈ 7.17 µM)
MIC [5]: 6.25 µg/mL (≈ 14.3 µM)
MIC [6]: 1.56 µg/mL (≈ 3.57 µM)
MIC ([7]; T111, 20 h, 10^6 cells per ml): 6.25 µg/mL (≈ 14.3 µM)
MIC ([8]; T216, 20 h, 10^6 cells per ml): 1.56 µg/mL (≈ 3.57 µM)
MIC [9]: 0.39 µg/mL (≈ 0.894 µM)
MIC [10, 28]: 12.5 µg/mL (≈ 28.6 µM)
MIC [11, 27]: 12.5 µg/mL (≈ 28.6 µM)
MIC [12]: 0.28 µg/mL (≈ 0.642 µM)
MIC [13, 25]: 3.13 µg/mL (≈ 7.17 µM)
MIC [14]: 6.25 µg/mL (≈ 14.3 µM)
MIC ([15]; 20 h, read-out: MIC): 25 µg/mL (≈ 57.3 µM)
MIC [16]: 0.1 µg/mL (≈ 0.229 µM)
MIC [17]: 0.2 µg/mL (≈ 0.458 µM)
MIC [18, 26]: 3.13 µg/mL (≈ 7.17 µM)
MIC [19]: 12.5 µg/mL (≈ 28.6 µM)

Source: patent US4698352A, “4-oxo-1,4-dihydronicotinic acid derivatives, salts thereof, and antibacterial agents containing the same” (Toyama Chemical Co., Ltd., priority 1982, dated 1987)
